Patent US9359409B2, “Antimicrobial peptides, compositions comprising the same and uses thereof” (priority 2012, dated 2016)
Like-named read-outs stand apart in the source and are kept apart here. Ends that are not written are not given here.

Columns and labels:
Pseudomonas aeruginosa = test: MIC by broth microdilution; assay type: cell-based
Experimental: (§1) The 5 designed and synthesized peptides of the invention, plus omiganan (peptide of the state of the art) were evaluated for their antimicrobial capacity in microdilution assays for determining the minimum inhibitory concentration (MIC). A first panel of 8 representative strains was analyzed in these assays, encompassing Gram positive and Gram negative bacteria. […] The lowest MIC values indicate a higher antimicrobial potency.
(§2) Subsequently, an analysis of a panel of clinical isolates including strains with different resistance mechanisms against conventional antibiotics was carried out, all of which are of clinical relevance. […] In Table 3 the results for a panel of Gram negative bacteria are shown, and in Table 4 for a panel of […] bacteria. In these tables the detected gene/s responsible for the resistance against antibiotics for each strain, are included.
(§3) Antimicrobial activity was analyzed by means of the determination of the MIC (minimum inhibitory concentration) by the microdilution technique. The technique was carried out in the standard fashion according to (CLSI M07-A9 Vol. 32 No 2. January 2012). The peptide concentration range used was from 0.5 μg/mL to 512 μg/mL in two-fold serial dilutions. The used medium was MH Difco broth supplemented with cations, at a final concentration of Ca^++20-25 mg/L and Mg^++10-12.5 mg/L. The working inoculum used corresponds to a 1/100 dilution of a bacterial suspension equivalent to 0.5 in the Mc Farland scale.

Staphylococcus aureus = test: MIC by broth microdilution; assay type: cell-based
Experimental: as §1, §2, §3

Klebsiella pneumoniae = test system: Klebsiella pneumoniae
Experimental: as §1, §2, §3

P. aeruginosa = assay type: cell-based
Experimental: (§4) In vitro sensitivity assay of aerobically growing bacteria, using the disc diffusion method was performed according to the standards in the M2 document of the CLSI (Clinical and Laboratory Standards Institute: Performance Standards for Antimicrobial Disk Susceptibility Tests.) using the non-amidated peptides
(§5) In brief, intermediate solutions (10×) of the antimicrobial non-amidated peptides were prepared by serial dilutions 1:2, 1:4 and 1:8 by two-fold dilutions. Then, one part of the solution of the antimicrobial peptide 10× was added to nine parts of melted bacteriological agar. The antibiotic solution was added for each dilution, in the melted agar and cooled to 45-50° C. in a water bath. Then, the agar-antibiotic mixture was placed in a Petri dish until a 3-4 mm depth was reached. The inoculum is prepared with a turbidity of 0.5 in the McFarland scale (approximately 1-2 10^8 CFU/ml). The final inoculum required for the agar dilution test is 10^4 colony forming units (CFU) per “spot” having 5-8 mm in diameter. The inoculated plates must be incubated upside down at 35° C. for a period of 16-20 hs. MIC was recorded as the value of the lower dilution completely inhibiting bacterial development, without considering the development of a single colony or a slight film caused by the inoculum deposit. The final point in these cases will correspond to the concentration at which there is more than 80% reduction in growth as compared with the control.

E. coli = assay type: cell-based; details: non-amidated peptides; E. coli ATCC 25922, WT
Experimental: as §4, §5

S. cohnii = assay type: cell-based
Experimental: as §4, §5

S. warnerii = assay type: cell-based
Experimental: as §4, §5

S. aureus = assay type: cell-based; details: non-amidated peptides
Experimental: as §4, §5

K. pneumoniae = assay type: cell-based; details: non-amidated peptides; K. pneumoniae M13540, KPC
Experimental: as §4, §5

E. faecalis = test system: E. faecalis
Experimental: as §2, §3

S. saprophyticus = test system: S. saprophyticus
Experimental: as §2, §3

E. gallinarum = test system: E. gallinarum
Experimental: as §2, §3

A. junii = A. junii M9013, resistance gene oxa-51 + imp
Experimental: as §2, §3

S. haemolyticus = test system: S. haemolyticus
Experimental: as §2, §3

S. hominis = test system: S. hominis
Experimental: as §2, §3

E. raffinosus = E. raffinosus M6187, resistance gene vanA
Experimental: as §2, §3

A. baumanii = test system: A. baumanii
Experimental: as §2, §3

human erythrocytes = test: Erythrocyte hemolysis assay (cytotoxicity); assay type: cell-based; details: peptide 128 ug/ml
Experimental: Subsequently, the capacity of the peptides of the invention for lysing human erythrocytes was evaluated, as a measure of their cytotoxicity (Table 2). The assays were carried out according to the Examples and are expressed as a percentage of total lysis obtained with either water or the surfactant Tween 20. In this assays, the lower hemolysis percentage, the lower expected cytotoxic activity.
Evaluation of cytotoxic activity was performed by means of an erythrocyte hemolysis assay (according to Pure Appl. Chem., Vol. 79, No. 4, pp. 717-728, 2007). In brief, from a volume of heparinized human whole blood, 3 times that volume of PBS is added and centrifuged 10 minutes at 1500 rpm, repeating the washing two more times. 10% blood solutions in PBS were prepared with that pellet. Subsequently, each group was added the corresponding peptide at the indicated concentration and incubated at 37° C. for 30 minutes. […]

ILRWPWWPWRRK-NH2 [Omiganan, ILRWPWWPWRRK, reference compound]
MIC (Pseudomonas aeruginosa; P. aeruginosa M5109, resistance gene vim): 256 µg/mL | MIC (Pseudomonas aeruginosa; P. aeruginosa M7723, resistance gene kpc): 256 µg/mL | MIC (Pseudomonas aeruginosa; P. aeruginosa M7907, resistance gene per): 128 µg/mL | MIC (Pseudomonas aeruginosa; P. aeruginosa M13513, resistance gene kpc): 256 µg/mL | MIC (Staphylococcus aureus; S. aureus 28, resistance gene ermA): 32 µg/mL | MIC (Staphylococcus aureus; S. aureus 33, resistance gene msrA): 32 µg/mL | MIC (Staphylococcus aureus; S. aureus 204, resistance gene ermA): 64 µg/mL | MIC (Staphylococcus aureus; S. aureus 239, resistance gene ermC): 32 µg/mL | MIC (Staphylococcus aureus; S. aureus M2832, resistance gene mecA): 64 µg/mL | MIC (Staphylococcus aureus; S. aureus M4046, resistance gene mecA): 32 µg/mL | MIC (Staphylococcus aureus; S. aureus M6276, resistance gene ermA + lnuA): 32 µg/mL | MIC (Staphylococcus aureus; S. aureus M6784, resistance gene mecA): 32 µg/mL | MIC (Staphylococcus aureus; S. aureus M6820, resistance gene mecA): 128 µg/mL | MIC (Klebsiella pneumoniae; K. Pneumoniae M9885, resistance gene kpc): 256 µg/mL | MIC (Klebsiella pneumoniae; K. pneumoniae M9170, resistance gene oxa-GIII): 128 µg/mL | MIC (Klebsiella pneumoniae; K. pneumoniae M9491, resistance gene mox): 128 µg/mL | MIC (Klebsiella pneumoniae; K. pneumoniae M13540, resistance gene kpc): 256 µg/mL | MIC in agar dilution (P. aeruginosa): >128 µg/mL | MIC in agar dilution (P. aeruginosa; non-amidated peptides, P. aeruginosa M13513, KPC): >128 µg/mL | MIC in agar dilution (E. coli): >128 µg/mL | MIC in agar dilution (S. cohnii): 16 µg/mL | MIC in agar dilution (S. warnerii): 16 µg/mL | MIC in agar dilution (S. aureus; S. aureus ATCC29213, MSSA): >128 µg/mL | MIC in agar dilution (S. aureus; S. aureus M6794, MRSA): >128 µg/mL | MIC in agar dilution (K. pneumoniae): >128 µg/mL | MIC (E. faecalis): 128 µg/mL | MIC (E. faecalis; E. faecalis ATCC 51299, resistance gene vanB): 256 µg/mL | MIC (E. faecalis; E. faecalis M4449, resistance gene vanA): 128 µg/mL | MIC (E. faecalis; E. faecalis M4899, resistance gene vanB): 256 µg/mL | MIC (E. faecalis; E. faecalis M4992, resistance gene vanA): 128 µg/mL | MIC (E. faecalis; E. faecalis M6383, resistance gene vanA): 128 µg/mL | MIC (E. faecalis; E. faecalis M6534, resistance gene vanB): 256 µg/mL | MIC (E. faecalis; E. faecalis M6983, resistance gene vanA): 128 µg/mL | MIC (S. saprophyticus): 8 µg/mL | MIC (E. gallinarum; E. gallinarum M2685, resistance gene vanC1 + vanA): 16 µg/mL | MIC (E. gallinarum; E. gallinarum M2723, resistance gene vanC1 + vanA): 16 µg/mL | MIC (A. junii): 64 µg/mL | MIC (S. haemolyticus): 4 µg/mL | MIC (S. hominis): 4 µg/mL | MIC (E. raffinosus): 4 µg/mL | MIC (A. baumanii; A. baumanii FAV-1, resistance gene per + oxa-51 + oxa-58): 64 µg/mL | MIC (A. baumanii; A. baumanii M5179, resistance gene oxa-51): 64 µg/mL | MIC (A. baumanii; A. baumanii M5277, resistance gene per): 32 µg/mL | MIC (A. baumanii; A. baumanii M5282, resistance gene oxa-51): 16 µg/mL | MIC (A. baumanii; A. baumanii M7489, resistance gene oxa-51 + tem): 32 µg/mL | MIC (A. baumanii; A. baumanii M7978, resistance gene imp): 64 µg/mL | MIC (A. baumanii; A. baumanii M9665, resistance gene oxa-51): 64 µg/mL | MIC (A. baumanii; A. baumanii M13523, resistance gene oxa-51): 64 µg/mL | Hemolysis % (1% Tween20) (human erythrocytes; percentage of total lysis obtained with 1% Tween20): 11.6% | Hemolysis % (water) (human erythrocytes; percentage of total lysis obtained with water): 10% | OD 540 nm (human erythrocytes; supernatant of human erythrocytes, 37° C., 30 minutes): 0.171
